Results published in US20010055776A1, “High throughput cell-based assay kits” (priority 2000, published 2001).

Test system: hemoglobin synthesis in human erythroid progenitors
Assay: Filter plate assay of hemoglobin (HbA) in differentiating erythroid progenitors with Europium-labeled anti-hemoglobin
Assay type: cell-based
Conditions: 168 h, 0.5 mM succinylacetone, 1,000 cells/well, 3.0 μm PCF filter plate, IL-3, IL-6, SCF, EPO, 7 days, read-out: succinylacetone-mediated inhibition of hemoglobin
Protocol: FIG. 6. Adult hemoglobin (HbA) expression by differentiating human erythroid progenitors. Cryopreserved progenitors were thawed and seeded into wells of a 96-well PCF filter plate at a density of 1,000 cells/well and cultured in the presence of IL-3, IL-6, EPO, and SCF ±/−0.5 mM succinylacetone. Hemoglobin was assayed by the filter plate procedure on day 7.
To establish the linearity of the assay relative to cell number, peripheral blood erythrocytes were seeded into wells of PCF filter plates (0.4 μm pore size for peripheral blood erythrocytes and 3.0 μm pore size for progenitor cells), fixed with 0.1 ml 1% formaldehyde for 30 minutes and then washed once with Hank's balanced salt solution (HBSS) (0.2 ml/well) and twice with HBSS containing 0.1% bovine serum albumin (BSA). All washes were done in a Millipore Silent Screen vacuum manifold with a vacuum pressure of 5″ Hg.
The cells were then permeabilized by incubation with 0.2 ml 0.1% Triton X-100 in HBSS-BSA for 10 minutes at room temperature. […] Enhancement Solution (Wallac) was added (0.1 ml/well), and after 5 minutes Europium fluorescence (excitation at […] and emission at 615 nm) was measured over a 400 μsecond time period after an initial delay of 400 μseconds with a Wallac Victor spectrofluorimeter. […]

Compound `CC(=O)CC(=O)CCC(=O)O` [succinylacetone] has an inhibition at 500 µM of 86%.
